Data on 3 compounds can be found in patent publication US7893299B2, “Interleukin-1 and tumor necrosis factor-αmodulators; syntheses of such modulators and methods of using such modulators” (Nereus Pharmaceuticals, Inc., priority 2005, dated 2011).

A word on the EC50: it is the midpoint of the concentration-response curve. High values mean a less potent agent, low ones a more potent agent.

The subject of assay [1] is IκBα phosphorylation. The assay is described as follows: phosphorylation level of IκBα induced by LPS in RPMI 8226 cells. Format: cell-based. The following applies: formula (IIB-A1) 13 μM, TTL3 10 μM, 50 ng/ml LPS. On the procedure: One ml/well of 2×10^6/ml RPMI 8226 cells (#CCL-155C, American Type Culture Collection) were seeded in 6-well plate in LGM-3 medium and cultured for overnight at 37° C., 5% CO2 and 95% humidified air. TTL3 and formula (IIB-A1) were added to RPMI 8226 cells at the final concentration of 10 μM and 13 μM for 1 hr, respectively. DMSO was used as a control. Cells were then stimulated with 50 ng/ml LPS diluted in LGM-3 medium from 1 mg/ml stock solution for 30 min, 1 hr, 2 hr and 4 hr. At the end of each time point, cells were harvested by centrifugation and cell pellets were washed once in ice-cold 1× DPBS. To prepare samples for SDS-PAGE, cells were lysed in RIPA buffer (50 mM Tris-HCl, pH7.4, 0.9% NaCl, 1% Triton X-100, 0.25% Na-deoxycholate, 1 mM EDTA, 2 mM Na3VO4 and 1× protease inhibitors cocktail) for 15 min on ice. Cell lysates were cleared by centrifugation at 14,000 rpm, 4° C. for 10 min. Protein concentrations of cell lysates were determined by BCA protein assay kit prior to SDS-PAGE. Equal amount of proteins from various cell lysates were resolved on 10% NuPage MES precast gels and transferred to nitrocellulose membranes according to the manufacturer's instructions. After transfer membranes were first blocked in BLOTTO (5% Non-fat dry milk in 1× DPBS buffer containing 0.1% Tween-20) at room temperature for 2 hr and then incubated with appropriate primary antibodies: anti-phospho-IκBα (1:1000) or anti-Tubulin (1:2000) for 2 hr. Antibody against tubulin was used as a control to confirm the equal loading of each sample. After the primary antibody incubation, membranes were washed briefly 2-3 times for 10 min each with BLOTTO and again incubated with sheep anti-mouse HRP conjugated secondary antibody for 1 hr. Following the secondary antibody incubation, membranes were washed extensively 4 times for 15 min each with PBST (1× DPBS plus 0.1% Tween-20). HRP activity was visualized by the enhanced chemiluminescence (ECL) detection system.

The subject of assay [2] is IL-10 production. The assay is described as follows: LPS-stimulated IL-10 levels in RPMI 8226 cells (ELISA). Format: cell-based, human. Particulars: 20 μM to 0.16 μM. On the procedure:
Ninety μl of 2.8×10^5/ml and 0.5 ml of 5×10^5/ml RMPI 8226 cells (#CCL-155C, American Type Culture Collection) were seeded in 96-well and 6-well plate in LGM-3 medium, respectively. Cells were cultured overnight at 37° C., 5% CO2 and 95% humidified air. 8-point serial dilution of TTL3 or formula (IIB-A1) was added to cells for 1 hr at the final concentration ranging from 20 μM to 0.16 μM. DMSO was used as control. After 1 hr, 50 ng/ml of LPS diluted in LGM-3 medium from 1 mg/ml stock solution was added to stimulate the cells for additional 10 hr. Supernatants were collected and IL-8 and IL-10 levels were analyzed by using the human IL-8 and IL-10 cytoset ELISA kits.
(In general: In an ELISA, binding on a coated surface is turned into a signal by an enzyme label.)

Assay [3] deals with HEK-293 cells. The assay is described as follows: cell growth inhibition, HEK-293, Resazurin, 1% FBS. Format: cell-based, Human. The following applies: 48 hr of drug exposure. How it is done: (§1) Human prostate adenocarcinoma (PC-3; CRL-1435), multiple myeloma (RPMI 8226; CCL-155) and embryonic kidney (HEK-293; CRL-1573) cells were all purchased from ATCC and maintained in appropriate culture media. The cells were cultured in an incubator at 37° C. in 5% CO2 and 95% humidified air.
(§2) For cell growth inhibition assays, PC-3 and HEK-293 cells were seeded at 5×10^3 and 1.5×10^3 cells/well respectively in 90 μl media containing 1% (v/v) FBS into 96 well (Corning; 3904) black-walled, clear-bottom tissue culture plates and the plates were incubated overnight to allow cells to establish and enter log phase growth. RPMI 8226 cells were seeded at 2×10^4 cells/well respectively in 90 μl media containing 1% (v/v) FBS into 96 well plates on the day of the assay. 4 mg/ml stock solutions of the compounds were prepared in 100% DMSO and stored at −20° C. The compounds were serially diluted and added in triplicate to the test wells. LT-1-85 was tested at concentrations ranging from 27 μM to 8.6 nM. Concentrations ranging from 30 μM to 9.7 nM were tested for CC-3-13P. Formula (IIB-A1) was tested at concentrations ranging from 26 μM to 8.4 nM. The plates were returned to the incubator for 48 hours. The final concentration of DMSO was 0.25% in all samples.
Following 48 hours of drug exposure, 10 μl of 0.2 mg/ml Resazurin in Mg2+, Ca2+ free phosphate buffered saline was added to each well and the plates were returned to the incubator for 3-6 hours. Since living cells metabolize Resazurin, the fluorescence of the reduction product of Resazurin was measured using a Fusion microplate fluorometer (Packard Bioscience) with λex=535 nm and λem=590 nm filters. Resazurin dye in medium without cells was used to determine the background, which was subtracted from the data for all experimental wells. […] Where the maximum inhibition of cell growth was less than 50%, an EC50 value was not determined. The data in Table 25 summarize the growth inhibitory effects of LT-1-85, CC-3-13P and formula (IIB-A1) against HEK-293, PC-3 and RPMI 8226 cells. […]

In assay [4] the test system is RPMI 8226 cells. The assay is described as follows: cell growth inhibition, RPMI 8226, Resazurin, 1% FBS. Format: cell-based, Human. Particulars: 48 hr of drug exposure. How it is done: as §1, §2
Following 48 hours of drug exposure, 10 μl of 0.2 mg/ml Resazurin in Mg2+, Ca2+ free phosphate buffered saline was added to each well and the plates were returned to the incubator for 3-6 hours. Since living cells metabolize Resazurin, the fluorescence of the reduction product of Resazurin was measured using a Fusion microplate fluorometer (Packard Bioscience) with λex=535 nm and λem=590 nm filters. Resazurin dye in medium without cells was used to determine the background, which was subtracted from the data for all experimental wells. […] Where the maximum inhibition of cell growth was less than 50%, an EC50 value was not determined. The data in Table 25 summarize the growth inhibitory effects of LT-1-85, CC-3-13P and formula (IIB-A1) against HEK-293, PC-3 and RPMI 8226 cells. The EC50 values indicate that LT-1-85 and CC-3-13P are cytotoxic against HEK-293, PC-3 and RPMI 8226 cells. Formula (IIB-A1) is cytotoxic against RPMI 8226 cells.

On to `C=C[C@@]1(C)CCC=C2[C@H]1CC[C@@H]1[C@](C)(C(=O)NC3CCCCC3)CCC[C@@]21C` [Formula (IIB-A1), N-Cyclohexylamide Derivative of TTL], for which the “level of IκBα phosphorylation induced by LPS in RPMI 8226 cells” value is given as “decrease” in assay [1] and “greatly reduced” in assay [1] (listed as formula (IIB-A1)). Besides, the “LPS-induced IL-10 production” value is “reduces LPS-induced IL-8 and IL-10 production in a dose-dependent manner” in assay [2]; “inhibits the LPS-induced IL-8 and IL-10 production” in assay [2] (listed as formula (IIB-A1)). Also, the EC50 in assay [3] (Homo sapiens, HEK293, 48 h) was > 26 µM; in assay [4] (Homo sapiens, RPMI-8226, 48 h) it was 21 µM.

For the compound `C=C[C@@]1(C)CCC=C2[C@H]1CC[C@@H]1[C@](C)(C(=O)N3CCOCC3)CCC[C@@]21C` [LT-1-85], the EC50 in assay [3] came out at 22 µM; in assay [3] (Homo sapiens, HEK293, 48 h), 23 µM; in assay [4], 13 µM; in assay [4] (Homo sapiens, RPMI-8226, 48 h), 14 µM.

As to `C=C[C@@]1(C)CCC=C2[C@H]1CC[C@@H]1[C@](C)(C(=O)OC)CCC[C@@]21C` [TTL3], the “level of IκBα phosphorylation induced by LPS in RPMI 8226 cells” value in assay [1] is listed as “minimal”. In addition, the “LPS-induced IL-10 production” value in assay [2] is given as “inhibits the IL-10 production in a dose-dependent manner”.
